According to patent EP2284541A1, “Fluorescence-based imaging and analysis of cells and cellular components using lipophilic dyes with improved specificity, spectral property and photostability” (Max-Planck-Gesellschaft zur Förderung der Wissenschaften …, priority 2009, dated 2011):
Several values for one entry are separate records, joined by “and”; a condition that tells them apart may be missing. Equal entries are not always repeated. Where two headings read alike, the source gives them in different places.

What was measured:
[1] = Comparative lipophilicity: log P by direct solvent partitioning, measured in the fluorometer; format: physicochemical; settings: for Δlog P: LD540 versus Bodipy 493/503; for log P: average, dye 0.1 µg/ml
Description: Dyes were dissolved in octanol-saturated water or oil-saturated methanol at a concentration of 0.1 μg/ml, measured in the fluorometer and shaken with an equal volume of water-saturated octanol or methanol-saturated oil for 20 min. Phases were separated by centrifugation. For octanol/water coefficients, the concentration of dye in the water phase was measured and used for calculations of log P. For the oil/methanol system, 10 μl samples of both phases were taken, diluted into 990 μl of isopropanol and measured in the fluorometer. The ratio was used for calculation of log p. Values obtained in the octanol/water system indicated higher lipophilicity of LD540. Since log P values larger 3 obtained by direct solvent partitioning are prone to errors, we also measured in the immiscible pair sunflower oil/methanol, where log p values for lipophilic substances are much smaller and less error prone. […] All values are average +/- […] values were determined by Students t-test.

[2] = Spectral characteristics (excitation and emission maxima) in various solvents and in stained cells, spectrofluorometer; format: physicochemical
Description: Spectra were measured on a Jobin Yvon Fluoromax3 spectrofluorometer at 3 x 10^-7 M. Differentiated 3T3-L1 cells were stained with 0.2 µg/ml LD540 in DMEM + 10% FCS for 30 min, followed by three washes. Cells were trypsinized, suspended at 100.000 cells/ml in PBS and measured in a fluorescence cuvette.
^#Note that the excitation maximum fits to the one reported in U.S. Patent No. 5,446,157, while the emission maximum in said reference was indicated to be 560 nm.

[3] = Photobleaching of dyes in sunflower oil under constant illumination in a photometer cuvette; format: physicochemical; settings: 0.1 µg/ml in sunflower oil; constant irradiation at absorption maximum
Description: In a first experiment, the different dyes to be compared (LD540, Nile Red and Bodipy 493/503) were dissolved at 0.1 µg/ml in sunflower oil (which represents the cellular environment of the dyes) and constantly irradiated in a photometer cuvette at their respective absorption maximum. Excitation energy was equal for all three dyes. Every 15 seconds, fluorescence emission was recorded. […] The slope of the curves are directly proportional to the respective rate of photobleaching. Under these conditions, LD540 bleaches 3-times slower than Nile Red and 15-times slower than Bodipy 493/503.

[4] = reported in U.S. Patent No. 5,446,157; cited from earlier work
[5] = Spectral characteristics (excitation and emission maxima) in various solvents and in stained cells, spectrofluorometer; format: physicochemical; settings: Ethanol, 2 x 10^-4 M
[6] = Oil/methanol (sunflower oil), n = 3
[7] = 3T3-L1 cells stained with 0.2 µg/ml LD540, suspended in PBS

Structure (SMILES) | Δlog P ([1]; Octanol/water) | log P ([1]; Octanol/water, n = 7) | log P [1, 6] | Δlog P ([1]; Oil/methanol) | Λ max exc [2, 7] | λ max em [2, 7] | Λ max exc ([2]; Ethanol, 3 x 10^-7 M) [nm] | λ max em ([2]; Ethanol, 3 x 10^-7 M) [nm] | Λ max exc ([2]; Hexane, 3 x 10^-7 M) [nm] | λ max em ([2]; Hexane, 3 x 10^-7 M) [nm] | Λ max exc ([2]; Sunflower oil, 3 x 10^-7 M) [nm] | λ max em ([2]; Sunflower oil, 3 x 10^-7 M) [nm] | Λ max exc ([2]; Water, 3 x 10^-7 M) [nm] | λ max em ([2]; Water, 3 x 10^-7 M) [nm] | bleaching, times slower than Nile Red [3] | emission maximum [4] [nm] | excitation maximum [4] [nm] | emission maximum ([5]; 1 mm cuvette) [nm] | emission maximum ([5]; 4 mm cuvette) [nm]
CC1=C2C=C3CCCCC3=[N+]2[B-](F)(F)n2c1cc1c2CCCC1 [LD540] | 0.88 | 4.38 | 0.75 | 0.44 | 540 nm and 540.2 nm | 545 nm and 545.0 nm | 536.0 | 542.5 | 539.7 | 542.2 | 540.2 | 545.2 | 534.8 | 542.4 | 3 | 560 | 535 | 550 | 557
CC1=CC(C)=[N+]2C1=C(C)c1c(C)cc(C)n1[B-]2(F)F [Bodipy 493/503, reference compound] |  | 3.50 | 0.31 |  |  |  |  |  |  |  |  |  |  |  |  |  |  |  | 
